Data reported in patent US11077184B2 (priority 2011, dated 2021).
Entries after “also recorded” stand apart in the source; their conditions may differ.

Assays:
[1] = tested on: Purified B cells from C57BL6 mice; type: cell-based
murine DCs = conditions: cited from earlier work

Substance | proliferation of B cells ([3H]-thymidine incorporation, CPM) [1] | pro-inflammatory cytokines IL-12p40, IL-6 and TNFα produced (murine DCs)
Poly I:C | does not | 
tripalmitoyl-S-glyceryl-cysteine [Pam3Cys] | can induce potent proliferation of B cells; also recorded: capable of inducing potent proliferation of B cells | high levels
